Data as given in patent US6737383B1, “Herbicidal oxadiazolidines” (priority 1999, dated 2004).

Legend:
surinam grass = assay: Test B pre/postemergence surinam grass; type: in vivo, Brachiaria decumbens
Procedure, shortened: (§1)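 Test chemicals in a non-phytotoxic solvent mixture with surfactant were sprayed preemergence onto planted seeds and postemergence onto plants 2 to 18 cm tall (1- to 4-leaf stage). After twelve to sixteen days in a greenhouse, injury was visually rated against untreated controls from 0 (no effect) to 10 (complete control).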

wild oat = assay: Test B pre/postemergence wild oat; type: in vivo, Avena fatua; details: for Plant response rating, Wild oats: scale of 0 to 10 where 0 is no effect and 10 is complete control
Procedure, shortened: as §1

morningglory = assay: Test B pre/postemergence morningglory; type: in vivo, Ipomoea hederacea; details: for Plant response rating, Morningglory: scale of 0 to 10 where 0 is no effect and 10 is complete control
Procedure, shortened: as §1

corn = assay: Test B pre/postemergence corn; type: in vivo, Zea mays
Procedure, shortened: as §1

pigweed = assay: Test B pre/postemergence pigweed; type: in vivo, Amaranthus retroflexus; details: for Plant response rating, Redroot pigweed: scale of 0 to 10 where 0 is no effect and 10 is complete control
Procedure, shortened: as §1

giant foxtail = assay: Test B pre/postemergence giant foxtail; type: in vivo, Setaria faberii
Procedure, shortened: as §1

cocklebur = assay: Test B pre/postemergence cocklebur; type: in vivo, Xanthium strumarium
Procedure, shortened: as §1

bedstraw = assay: Test B pre/postemergence bedstraw; type: in vivo, Galium aparine; details: Postemergence
Procedure, shortened: as §1

crabgrass = assay: Test B pre/postemergence crabgrass; type: in vivo, Digitaria sanguinalis
Procedure, shortened: as §1

blackgrass = assay: Test B pre/postemergence blackgrass; type: in vivo, Alopecurus myosuroides
Procedure, shortened: as §1

rice = assay: Test B flood test rice; type: in vivo, Oryza sativa
Procedure, shortened: (§2)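 Flood test on plants grown to the 2-leaf stage; treated plants kept in greenhouse twelve to sixteen days, then visually rated against controls on a 0 (no effect) to 10 (complete control) scale.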

soybean = assay: Test B pre/postemergence soybean; type: in vivo, Glycine max; details: for Plant response rating, Soybean: scale of 0 to 10 where 0 is no effect and 10 is complete control
Procedure, shortened: as §1

bamyardgrass = assay: Test B flood test barnyardgrass; type: in vivo, Echinochloa crus-galli
Procedure, shortened: as §2

wheat = assay: Test B pre/postemergence wheat; type: in vivo, Triticum aestivum; details: for Plant response rating, Wheat: scale of 0 to 10 where 0 is no effect and 10 is complete control
Procedure, shortened: as §1

velvetleaf = assay: Test B pre/postemergence velvetleaf; type: in vivo, Abutilon theophrasti; details: for Plant response rating, Velvetleaf: scale of 0 to 10 where 0 is no effect and 10 is complete control
Procedure, shortened: as §1

smallflower flatsedge = assay: Test B flood test smallflower flatsedge; type: in vivo, Cyperus difformis
Procedure, shortened: as §2

[1] = Postemergence, Rate 500 g/ha, scale of 0 to 10 where 0 is no effect and 10 is complete control
[2] = Preemergence, Rate 62 g/ha, scale of 0 to 10 where 0 is no effect and 10 is complete control
[3] = Preemergence, Rate 125 g/ha, scale of 0 to 10 where 0 is no effect and 10 is complete control
[4] = Preemergence, Rate 250 g/ha, scale 0 to 10, 0 is no effect, 10 is complete control
[5] = Preemergence, Rate 500 g/ha, scale 0 to 10, 0 is no effect, 10 is complete control
[6] = Rate 62 g/ha, Postemergence, scale 0 to 10 (0 no effect, 10 complete control)
[7] = Rate 125 g/ha, Postemergence, scale 0 to 10, 0 is no effect, 10 is complete control
[8] = Postemergence, Rate 250 g/ha, scale 0 to 10
[9] = Rate 62 g/ha, flood test species, Pre-emergence, visual evaluation after twelve to sixteen days
[10] = Rate 125 g/ha, under heading Pre-emergence, flood test species, visual evaluation after twelve to sixteen days
[11] = Rate 250 g/ha, Pre-emergence (flood test species), scale 0 to 10, 0 is no effect, 10 is complete control
[12] = Rate 500 g/ha, Pre-emergence, flood test species, scale 0 to 10 (0 no effect, 10 complete control)

CC(C)N(C(=O)n1oc(=O)n(CO)c1=O)c1ccc(F)cc1 [Compound 470]
B. signalgrass plant response rating (surinam grass; Postemergence, Rate 250 g/ha, scale 0 to 10, 0 no effect, 10 complete control): 0
B. signalgrass plant response rating (surinam grass; [1]): 0
Plant response rating, B. signalgrass (surinam grass; [2]): 0
Plant response rating, B. signalgrass (surinam grass; [3]): 0
B. signalgrass plant response rating (surinam grass; [4]): 4
B. signalgrass plant response rating (surinam grass; [5]): 6
B. signalgrass plant response rating (surinam grass; [6]): 0
B. signalgrass plant response rating (surinam grass; [7]): 0
Wild oats plant response rating (wild oat; [8]): 0
Plant response rating, Wild oats (wild oat; Preemergence, Rate 62 g/ha): 0
Plant response rating, Wild oats (wild oat; Preemergence, Rate 125 g/ha): 0
Wild oats plant response rating (wild oat; [4]): 0
Wild oats plant response rating (wild oat; [5]): 3
Wild oats plant response rating (wild oat; [6]): 0
Wild oats plant response rating (wild oat; [7]): 0
Morningglory plant response rating (morningglory; [8]): 0
Plant response rating, Morningglory (morningglory; Preemergence, Rate 62 g/ha): 0
Plant response rating, Morningglory (morningglory; Preemergence, Rate 125 g/ha): 0
Morningglory plant response rating (morningglory; [4]): 0
Morningglory plant response rating (morningglory; [5]): 0
Morningglory plant response rating (morningglory; [6]): 0
Morningglory plant response rating (morningglory; [7]): 0
Corn plant response rating (corn; [8]): 0
Corn plant response rating (corn; [1]): 0
Plant response rating, Corn (corn; [2]): 0
Plant response rating, Corn (corn; [3]): 0
Corn plant response rating (corn; [4]): 0
Corn plant response rating (corn; [5]): 0
Corn plant response rating (corn; [6]): 0
Corn plant response rating (corn; [7]): 0
Redroot pigweed plant response rating (pigweed; [8]): 0
Plant response rating, Redroot pigweed (pigweed; Preemergence, Rate 62 g/ha): 0
Plant response rating, Redroot pigweed (pigweed; Preemergence, Rate 125 g/ha): 0
Redroot pigweed plant response rating (pigweed; [4]): 0
Redroot pigweed plant response rating (pigweed; [5]): 0
Redroot pigweed plant response rating (pigweed; [6]): 0
Redroot pigweed plant response rating (pigweed; [7]): 0
Giant foxtail plant response rating (giant foxtail; [8]): 0
Giant foxtail plant response rating (giant foxtail; [1]): 0
Plant response rating, Giant foxtail (giant foxtail; [2]): 0
Plant response rating, Giant foxtail (giant foxtail; [3]): 0
Giant foxtail plant response rating (giant foxtail; [4]): 0
Giant foxtail plant response rating (giant foxtail; [5]): 3
Giant foxtail plant response rating (giant foxtail; [6]): 0
Giant foxtail plant response rating (giant foxtail; [7]): 0
Cocklebur plant response rating (cocklebur; [8]): 0
Cocklebur plant response rating (cocklebur; [1]): 0
Plant response rating, Cocklebur (cocklebur; [2]): 0
Plant response rating, Cocklebur (cocklebur; [3]): 0
Cocklebur plant response rating (cocklebur; [4]): 0
Cocklebur plant response rating (cocklebur; [5]): 0
Cocklebur plant response rating (cocklebur; [6]): 0
Cocklebur plant response rating (cocklebur; [7]): 0
Bedstraw plant response rating (bedstraw; Rate 62 g/ha, scale 0 to 10 (0 no effect, 10 complete control)): 0
Bedstraw plant response rating (bedstraw; Rate 125 g/ha, scale 0 to 10, 0 is no effect, 10 is complete control): 0
Crabgrass plant response rating (crabgrass; [8]): 0
Crabgrass plant response rating (crabgrass; [1]): 0
Plant response rating, Crabgrass (crabgrass; [2]): 1
Plant response rating, Crabgrass (crabgrass; [3]): 7
Crabgrass plant response rating (crabgrass; [4]): 8
Crabgrass plant response rating (crabgrass; [5]): 9
Crabgrass plant response rating (crabgrass; [6]): 0
Crabgrass plant response rating (crabgrass; [7]): 0
Blackgrass plant response rating (blackgrass; [8]): 0
Blackgrass plant response rating (blackgrass; [1]): 0
Plant response rating, Blackgrass (blackgrass; [2]): 0
Plant response rating, Blackgrass (blackgrass; [3]): 0
Blackgrass plant response rating (blackgrass; [4]): 7
Blackgrass plant response rating (blackgrass; [6]): 0
Blackgrass plant response rating (blackgrass; [7]): 0
Plant response rating, Rice (0 to 10 scale, 0 is no effect, 10 is complete control) (rice; [9]): 0
Rice plant response rating (0 to 10 scale, 0 is no effect, 10 is complete control) (rice; [10]): 0
Rice plant response rating (rice; [11]): 0
Rice plant response rating (rice; [12]): 0
Soybean plant response rating (soybean; [8]): 1
Plant response rating, Soybean (soybean; Preemergence, Rate 62 g/ha): 0
Plant response rating, Soybean (soybean; Preemergence, Rate 125 g/ha): 0
Soybean plant response rating (soybean; [4]): 0
Soybean plant response rating (soybean; [5]): 0
Soybean plant response rating (soybean; [6]): 0
Soybean plant response rating (soybean; [7]): 0
Plant response rating, Barnyardgrass (0 to 10 scale, 0 is no effect, 10 is complete control) (bamyardgrass; [9]): 0
Barnyardgrass plant response rating (0 to 10 scale, 0 is no effect, 10 is complete control) (bamyardgrass; [10]): 0
Barnyardgrass plant response rating (bamyardgrass; [11]): 0
Barnyardgrass plant response rating (bamyardgrass; [12]): 0
Wheat plant response rating (wheat; [8]): 0
Plant response rating, Wheat (wheat; Preemergence, Rate 62 g/ha): 0
Plant response rating, Wheat (wheat; Preemergence, Rate 125 g/ha): 0
Wheat plant response rating (wheat; [4]): 0
Wheat plant response rating (wheat; [5]): 0
Wheat plant response rating (wheat; [6]): 0
Wheat plant response rating (wheat; [7]): 0
Velvetleaf plant response rating (velvetleaf; [8]): 0
Plant response rating, Velvetleaf (velvetleaf; Preemergence, Rate 62 g/ha): 0
Plant response rating, Velvetleaf (velvetleaf; Preemergence, Rate 125 g/ha): 0
Velvetleaf plant response rating (velvetleaf; [4]): 0
Velvetleaf plant response rating (velvetleaf; [5]): 0
Velvetleaf plant response rating (velvetleaf; [6]): 0
Velvetleaf plant response rating (velvetleaf; [7]): 0
Plant response rating, S. Flatsedge (0 to 10 scale, 0 is no effect, 10 is complete control) (smallflower flatsedge; [9]): 0
S. Flatsedge plant response rating (0 to 10 scale, 0 is no effect, 10 is complete control) (smallflower flatsedge; [10]): 0
S. Flatsedge plant response rating (smallflower flatsedge; [11]): 0
S. Flatsedge plant response rating (smallflower flatsedge; [12]): 0
